# Results reported in US20190345146A1, “NITROGEN CONTAINING BICYCLIC DERIVATIVES FOR TREATING PAIN AND PAIN RELATED CONDITIONS” (ESTEVE PHARMACEUTICALS, S.A., priority 2016, published 2019).
# Molecular target: human norepinephrine transporter (NET) (Homo sapiens, UniProt P23975)
# Test: Binding assay to human norepinephrine transporter (NET) ([3H]-Nisoxetin)
# Conditions: Table 2, dual compounds, human NET enriched membranes, read-out: Ki(nM) NET Hum
# Description: (§1) Readings were performed in a Trilux 1450 Microbeta radioactive counter (Perkin Elmer). • Binding assay to human norepinephrine transporter (NET).
# Human norepinephrine transporter (NET) enriched membranes (5 μg) were incubated with 5 nM of radiolabeled [3H]-Nisoxetin in assay buffer containing 50 mM Tris-HCl, 120 mM NaCl, 5 mM KCl, pH 7.4.
# NSB (non specific binding) was measured by adding 10 μM desipramine. The binding of the test compound was measured at five different concentrations. After 60 min incubation at 4° C., binding reaction was terminated by filtering through Multiscreen GF/C (Millipore) presoaked in 0.5% polyethyleneimine in Vacuum Manifold Station, followed by 3 washes with ice-cold filtration buffer containing 50 mM Tris-HCl, 0.9% NaCl, pH 7.4.
# (§2) Filter plates were dried at 60° C. for 1 h and 30 μl of scintillation cocktail were added to each well before radioactivity reading.
# Readings were performed in a Trilux 1450 Microbeta radioactive counter (Perkin Elmer).
# human norepinephrine transporter (NET), sequence (P23975 whole entry): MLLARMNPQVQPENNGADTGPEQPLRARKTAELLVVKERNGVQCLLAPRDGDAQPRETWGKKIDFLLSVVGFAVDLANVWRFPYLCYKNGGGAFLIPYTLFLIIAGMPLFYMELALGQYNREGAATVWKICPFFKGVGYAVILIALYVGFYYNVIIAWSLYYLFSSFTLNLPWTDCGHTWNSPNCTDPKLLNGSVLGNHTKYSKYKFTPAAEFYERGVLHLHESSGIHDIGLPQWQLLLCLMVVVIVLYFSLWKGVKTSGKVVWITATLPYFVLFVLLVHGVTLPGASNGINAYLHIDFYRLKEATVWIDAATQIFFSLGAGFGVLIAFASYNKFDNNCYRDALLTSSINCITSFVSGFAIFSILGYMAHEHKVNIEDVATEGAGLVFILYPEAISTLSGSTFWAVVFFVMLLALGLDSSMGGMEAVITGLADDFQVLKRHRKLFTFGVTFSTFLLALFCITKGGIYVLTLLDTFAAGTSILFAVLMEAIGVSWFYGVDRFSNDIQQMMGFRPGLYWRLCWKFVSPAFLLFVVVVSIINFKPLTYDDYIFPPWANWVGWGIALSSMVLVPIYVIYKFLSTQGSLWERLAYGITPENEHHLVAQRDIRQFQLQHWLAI
row,Ki,Structure (SMILES)
1,500 to 1000 nM,"CNCCC(Oc1cccc2c1CCN(CC(F)F)C2)c1cccs1 (stereo not drawn) [Example 3, 3-((2-(2,2-difluoroethyl)-1,2,3,4-tetrahydroisoquinolin-5-yl)oxy)-N-methyl-3-(thiophen-2-yl)propan-1-amine]"
2,500 to 1000 nM,"CNCCC(Oc1cccc2c1CCCN2C)c1cccs1 (stereo not drawn) [Example 1, N-Methyl-3-((1-methyl-1,2,3,4-tetrahydroquinolin-5-yl)oxy)-3-(thiophen-2-yl)propan-1-amine]"

# Molecular target: human α2δ-1 subunit of Cav2.2 calcium channel (Homo sapiens, UniProt P54289)
# Test: Binding assay to human α2δ-1 subunit of Cav2.2 calcium channel ([3H]-Gabapentin)
# Conditions: Table 1, human α2δ-1 enriched membranes, read-out: Ki(nM) alpha2delta Hum
# Description: • Binding assay to human α2δ-1 subunit of Cav2.2 calcium channel.
# Human α2δ-1 enriched membranes (2.5 μg) were incubated with 15 nM of radiolabeled [3H]-Gabapentin in assay buffer containing Hepes-KOH 10 mM, pH 7.4.
# NSB (non specific binding) was measured by adding 10 μM pregabalin. The binding of the test compound was measured at five different concentrations. After 60 min of incubation at 27° C., the binding reaction was terminated by filtering through Multiscreen GF/C (Millipore) presoaked in 0.5% polyethyleneimine in Vacuum Manifold Station, followed by 3 washes with ice-cold filtration buffer containing 50 mM Tris-HCl, pH 7.4.
# as §2, §1
# human α2δ-1 subunit of Cav2.2 calcium channel, sequence (P54289 25-1103): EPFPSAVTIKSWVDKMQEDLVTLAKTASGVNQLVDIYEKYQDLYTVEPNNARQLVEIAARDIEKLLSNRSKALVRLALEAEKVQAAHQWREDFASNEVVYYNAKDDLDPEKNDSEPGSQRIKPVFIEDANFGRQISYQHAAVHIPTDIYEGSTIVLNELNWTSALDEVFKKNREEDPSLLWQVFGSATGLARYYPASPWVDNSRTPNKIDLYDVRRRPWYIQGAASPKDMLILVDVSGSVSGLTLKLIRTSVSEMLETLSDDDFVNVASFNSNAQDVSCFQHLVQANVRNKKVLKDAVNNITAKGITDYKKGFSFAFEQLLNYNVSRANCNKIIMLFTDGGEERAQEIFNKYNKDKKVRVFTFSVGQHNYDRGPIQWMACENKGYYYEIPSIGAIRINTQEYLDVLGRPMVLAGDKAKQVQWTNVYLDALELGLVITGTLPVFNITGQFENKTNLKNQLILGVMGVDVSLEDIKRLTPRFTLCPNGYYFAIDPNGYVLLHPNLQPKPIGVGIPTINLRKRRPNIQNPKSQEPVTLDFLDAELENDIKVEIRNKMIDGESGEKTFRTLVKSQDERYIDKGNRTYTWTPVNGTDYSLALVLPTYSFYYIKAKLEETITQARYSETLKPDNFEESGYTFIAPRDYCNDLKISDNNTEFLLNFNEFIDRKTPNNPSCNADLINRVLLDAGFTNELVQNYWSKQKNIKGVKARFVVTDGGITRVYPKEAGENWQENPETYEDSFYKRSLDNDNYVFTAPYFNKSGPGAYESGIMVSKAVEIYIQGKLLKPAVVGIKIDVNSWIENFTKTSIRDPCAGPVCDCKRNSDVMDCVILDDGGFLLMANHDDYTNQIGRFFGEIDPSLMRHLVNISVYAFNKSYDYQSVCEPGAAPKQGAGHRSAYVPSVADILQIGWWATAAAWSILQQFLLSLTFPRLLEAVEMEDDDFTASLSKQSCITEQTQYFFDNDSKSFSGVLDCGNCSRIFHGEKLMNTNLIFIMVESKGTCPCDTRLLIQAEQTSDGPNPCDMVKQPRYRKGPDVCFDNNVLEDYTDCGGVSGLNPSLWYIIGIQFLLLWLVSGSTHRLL
row,Structure (SMILES),Ki
1,"CNCCC(OCc1cccc2cnccc12)c1cccs1 (stereo not drawn) [Example 21, 3-(isoquinolin-5-ylmethoxy)-N-methyl-3-(thiophen-2-yl)propan-1-amine]",≥ 3000 nM
2,"CNCC[C@@H](Oc1cccc2c1CCCN2C)c1cccs1 [Example 24, (R)—N-methyl-3-((1-methyl-1,2,3,4-tetrahydroquinolin-5-yl)oxy)-3-(thiophen-2-yl)propan-1-amine]",100 to 500 nM
3,"CNCC[C@@H](Oc1cc(F)cc2ncn(C)c(=O)c12)c1cccs1 [Example 45, (R)-7-fluoro-3-methyl-5-(3-(methylamino)-1-(thiophen-2-yl)propoxyl)quinazolin-4(3H)-one]",100 to 500 nM
4,"CNCC[C@H](Oc1cccc2c1ccc(=O)n2C)c1cccs1 [Example 28, (S)-1-methyl-5-(3-(methylamino)-1-(thiophen-2-yl)propoxy)quinolin-2(1H)-one]",500 to 3000 nM
5,"CCNCCC(Oc1cccc2cnncc12)c1ccccc1 (stereo not drawn) [Example 11, N-ethyl-3-phenyl-3-(phthalazin-5-yloxy)propan-1-amine]",500 to 3000 nM
6,"CNCCC(OCc1cccc2cnccc12)c1ccccc1 (stereo not drawn) [Example 17, 3-(Isoquinolin-5-ylmethoxy)-N-methyl-3-phenylpropan-1-amine]",≥ 3000 nM
7,"CNCCC(Oc1cccc2c(=O)n(C)cnc12)c1cccs1 (stereo not drawn) [Example 8, 3-methyl-8-(3-(methylamino)-1-(thiophen-2-yl)propoxy)quinazolin-4(3H)-one]",100 to 500 nM
8,"CNCC[C@@H](Oc1cccc2c1ccc(=O)n2C)c1cccs1 [Example 29, (R)-1-methyl-5-(3-(methylamino)-1-(thiophen-2-yl)propoxy)quinolin-2(1H)-one]",100 to 500 nM
9,"CCNCC[C@H](Oc1cccc2c(=O)n(C)ccc12)c1cccs1 [Example 35, (S)-5-(3-(ethylamino)-1-(thiophen-2-yl)propoxy)-2-methylisoquinolin-1(2H)-one]",500 to 3000 nM
10,"CCNCC[C@@H](Oc1cccc2ncncc12)c1cccs1 [Example 39, (R)-N-ethyl-3-(quinazolin-5-yloxy)-3-(thiophen-2-yl)propan-1-amine]",100 to 500 nM
11,"CNCCC(OCc1cccc2ccncc12)c1cccs1 (stereo not drawn) [Example 20, 3-(Isoquinolin-8-ylmethoxy)-N-methyl-3-(thiophen-2-yl)propan-1-amine]",≥ 3000 nM
12,"CCNCC[C@H](Oc1cccc2c(=O)n(C)cnc12)c1cccs1 [Example 34, (S)-8-(3-(ethylamino)-1-(thiophen-2-yl)propoxy)-3-methylquinazolin-4(3H)-one]",≥ 3000 nM
13,"CNCCC(Oc1cccc2c(=O)n(C)ccc12)c1cccs1 (stereo not drawn) [Example 9, 2-methyl-5-(3-(methylamino)-1-(thiophen-2-yl)propoxy)isoquinolin-1(2H)-one]",100 to 500 nM
14,"CNCC[C@H](Oc1cccc2ncncc12)c1cccs1 [Example 33, (S)-N-methyl-3-(quinazolin-5-yloxy)-3-(thiophen-2-yl)propan-1-amine]",100 to 500 nM
15,"CNCC[C@@H](Oc1cccc2ncn(C)c(=O)c12)c1ccsc1 [Example 43, (R)-3-methyl-5-(3-(methylamino)-1-(thiophen-3-yl)propoxyl)quinazolin-4(3H)-one]",100 to 500 nM

# Other lines, results leading:
row,Ki,Structure (SMILES)
1,100 to 500 nM,"CNCCC(Oc1cccc2c1CCN(CC(F)F)C2)c1cccs1 (stereo not drawn) [Example 3, 3-((2-(2,2-difluoroethyl)-1,2,3,4-tetrahydroisoquinolin-5-yl)oxy)-N-methyl-3-(thiophen-2-yl)propan-1-amine]"
2,< 100 nM,"CCNCC[C@@H](Oc1cccc2c(=O)n(C)ccc12)c1ccsc1 [Example 42, (R)-5-(3-(ethylamino)-1-(thiophen-3-yl)propoxy)-2-methylisoquinolin-1(2H)-one]"
3,< 100 nM,"CCNCCC(Oc1cccc2c1CCN(C)C2)c1cccs1 (stereo not drawn) [Example 27, N-ethyl-3-((2-methyl-1,2,3,4-tetrahydroisoquinolin-5-yl)oxy)-3-(thiophen-2-yl)propan-1-amine]"
4,100 to 500 nM,"CNCCC(Oc1cccc2c1CCCN2C)c1cccs1 (stereo not drawn) [Example 1, N-Methyl-3-((1-methyl-1,2,3,4-tetrahydroquinolin-5-yl)oxy)-3-(thiophen-2-yl)propan-1-amine]"
5,< 100 nM,"CCNCC[C@@H](Oc1cccc2c(=O)n(C)cnc12)c1ccsc1 [Example 41, (R)-8-(3-(ethylamino)-1-(thiophen-3-yl)propoxy)-3-methylquinazolin-4(3H)-one]"
6,< 100 nM,"CNCCC(Oc1cccc2cnncc12)c1cccs1 (stereo not drawn) [Example 6, N-methyl-3-(phthalazin-5-yloxy)-3-(thiophen-2-yl)propan-1-amine]"
7,< 100 nM,"CCNCC[C@@H](Oc1cccc2c(=O)n(C)ccc12)c1cccs1 [Example 31, (R)-5-(3-(ethylamino)-1-(thiophen-2-yl)propoxy)-2-methylisoquinolin-1(2H)-one]"
8,< 100 nM,"CCNCC[C@@H](Oc1cccc2ncncc12)c1ccsc1 [Example 40, (R)-N-ethyl-3-(quinazolin-5-yloxy)-3-(thiophen-3-yl)propan-1-amine]"

# Same assay, conditions: Table 2, dual compounds, human α2δ-1 enriched membranes, read-out: Ki(nM) alpha2delta Hum
row,Ki,Structure (SMILES)
1,100 to 500 nM,"CNCCC(Oc1cccc2c1CCN(CC(F)F)C2)c1cccs1 (stereo not drawn) [Example 3, 3-((2-(2,2-difluoroethyl)-1,2,3,4-tetrahydroisoquinolin-5-yl)oxy)-N-methyl-3-(thiophen-2-yl)propan-1-amine]"
2,100 to 500 nM,"CNCCC(Oc1cccc2c1CCCN2C)c1cccs1 (stereo not drawn) [Example 1, N-Methyl-3-((1-methyl-1,2,3,4-tetrahydroquinolin-5-yl)oxy)-3-(thiophen-2-yl)propan-1-amine]"
